ChEMBL document CHEMBL1201862, “PubChem BioAssay data set” (2004)
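Dose response: 5 concentrations. Exposure: 48 h. Format: 96-well plates. Endpoint: linear interpolation; highest concentration if not reached. GI50 marks 50% less growth.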 Active and inactive are the calls of the source. No stated cut-off is given here; in the data, active = GI50 up to about 1.1 µM and inactive = higher.

Legend:
Experiment in all cases: growth of human tumour cells (NCI), 48 h
ACHN = test system: ACHN
UACC-62 = test system: UACC-62
KM-20L2 = test system: KM-20L2
SF-539 = test system: SF-539
SF-268 = test system: SF-268
COLO 205 = test system: COLO 205
HCT-15 = test system: HCT-15
SN12C = test system: SN12C
SK-OV-3 = test system: SK-OV-3
IGROV-1 = test system: IGROV-1
HOP-62 = test system: HOP-62
OVCAR-4 = test system: OVCAR-4
SNB-75 = test system: SNB-75
M14 = test system: M14
Malme-3M = test system: Malme-3M
KM12 = test system: KM12
UACC-257 = test system: UACC-257
MCF7 = test system: MCF7
T47D = test system: T47D
NCI-H226 = test system: NCI-H226

| Compound | GI50 (ACHN) | GI50 (UACC-62) | GI50 (KM-20L2) | GI50 (SF-539) | GI50 (SF-268) | GI50 (COLO 205) | GI50 (HCT-15) [µM] | GI50 (SN12C) | GI50 (SK-OV-3) | GI50 (IGROV-1) | GI50 (HOP-62) | GI50 (OVCAR-4) | GI50 (SNB-75) | GI50 (M14) | GI50 (Malme-3M) | GI50 (KM12) | GI50 (UACC-257) | GI50 (MCF7) | GI50 (T47D) | GI50 (NCI-H226) |
| --- | --- | --- | --- | --- | --- | --- | --- | --- | --- | --- | --- | --- | --- | --- | --- | --- | --- | --- | --- | --- |
| CC12CC(Sc3ccccc3N1)c1ccccc1O2 (stereo unspecified) | 16.9 µM (inactive) | 17 µM (inactive) | 18.4 µM (inactive) | 17.5 µM (inactive) | 16.1 µM (inactive) | 16.2 µM (inactive) | 15.6 | 18.8 µM (inactive) | 33.7 µM (inactive) | 21.9 µM (inactive) | 19.6 µM (inactive) | 17 µM (inactive) | 28.2 µM (inactive) | 18.3 µM (inactive) | 16.1 µM (inactive) | 15.3 µM (inactive) | 14.5 µM (inactive) | – | – | – |
| O=C1Nc2ccccc2C12CCCC2 | > 100 µM (inactive) | > 100 µM (inactive) | > 100 µM (inactive) | 4.24 µM (inactive) | > 100 µM (inactive) | > 100 µM (inactive) | > 100 | > 100 µM (inactive) | > 100 µM (inactive) | > 100 µM (inactive) | > 100 µM (inactive) | > 100 µM (inactive) | 54.6 µM (inactive) | > 100 µM (inactive) | > 100 µM (inactive) | > 100 µM (inactive) | > 100 µM (inactive) | – | – | – |
| O=C(O)COc1ccc2c3c1C(=O)CCC3CO2 (stereo unspecified) | > 100 µM (inactive) | > 100 µM (inactive) | > 100 µM (inactive) | > 100 µM (inactive) | > 100 µM (inactive) | > 100 µM (inactive) | > 100 | > 100 µM (inactive) | > 100 µM (inactive) | > 100 µM (inactive) | > 100 µM (inactive) | > 100 µM (inactive) | – | > 100 µM (inactive) | > 100 µM (inactive) | > 100 µM (inactive) | > 100 µM (inactive) | – | – | – |
| O=C1C(=Cc2ccco2)C(=O)C2CCCCC12 (stereo unspecified) | > 100 µM (inactive) | > 100 µM (inactive) | – | > 100 µM (inactive) | > 100 µM (inactive) | > 100 µM (inactive) | > 100 | > 100 µM (inactive) | > 100 µM (inactive) | > 100 µM (inactive) | > 100 µM (inactive) | > 100 µM (inactive) | > 100 µM (inactive) | > 100 µM (inactive) | > 100 µM (inactive) | > 100 µM (inactive) | > 100 µM (inactive) | > 100 µM (inactive) | > 100 µM (inactive) | > 100 µM (inactive) |
| Cc1cnc2sn(-c3ccc(Br)cc3)c(=O)c2c1 | 35.6 µM (inactive) | 33.4 µM (inactive) | – | 31.3 µM (inactive) | 38.7 µM (inactive) | 26.8 µM (inactive) | 26.6 | 59.6 µM (inactive) | 41.6 µM (inactive) | 53.6 µM (inactive) | 27.7 µM (inactive) | 26.2 µM (inactive) | 84.9 µM (inactive) | 41.2 µM (inactive) | 15.1 µM (inactive) | 74.8 µM (inactive) | 45.2 µM (inactive) | 30.3 µM (inactive) | 13.4 µM (inactive) | 52 µM (inactive) |
| CCN1CSC(=S)N(CC)C1 | > 100 µM (inactive) | 38.8 µM (inactive) | – | 27.7 µM (inactive) | > 100 µM (inactive) | 54.8 µM (inactive) | 73.3 | > 100 µM (inactive) | > 100 µM (inactive) | 75.3 µM (inactive) | 24 µM (inactive) | > 100 µM (inactive) | 44.2 µM (inactive) | 50.6 µM (inactive) | 52.7 µM (inactive) | 98.2 µM (inactive) | > 100 µM (inactive) | 41 µM (inactive) | > 100 µM (inactive) | > 100 µM (inactive) |
| C[C@H](C(=O)C12CC3CC(CC(C3)C1)C2)[C@H](O)c1ccccc1 | 33.8 µM (inactive) | 28.4 µM (inactive) | 20.8 µM (inactive) | 33.3 µM (inactive) | 15.2 µM (inactive) | 15 µM (inactive) | – | 19.5 µM (inactive) | 83.9 µM (inactive) | 40 µM (inactive) | – | 44 µM (inactive) | 27 µM (inactive) | 29.6 µM (inactive) | – | 25.5 µM (inactive) | 29.9 µM (inactive) | – | – | 16.8 µM (inactive) |
| OC1[C@@H]2[C@@H](O)CCCN2C[C@@H](O)[C@H]1O (stereo partly specified) | > 100 µM (inactive) | > 100 µM (inactive) | – | > 100 µM (inactive) | > 100 µM (inactive) | > 100 µM (inactive) | > 100 | > 100 µM (inactive) | > 100 µM (inactive) | > 100 µM (inactive) | > 100 µM (inactive) | > 100 µM (inactive) | > 100 µM (inactive) | > 100 µM (inactive) | > 100 µM (inactive) | > 100 µM (inactive) | > 100 µM (inactive) | > 100 µM (inactive) | > 100 µM (inactive) | > 100 µM (inactive) |
| COC(=O)c1cc2ccc(O)c(O)c2cn1 | 19.1 µM (inactive) | 2.41 µM (inactive) | – | 18.7 µM (inactive) | 17.1 µM (inactive) | 18.9 µM (inactive) | 20.3 | 9.1 µM (inactive) | 27.5 µM (inactive) | 17.5 µM (inactive) | 20.6 µM (inactive) | 10.1 µM (inactive) | 21.5 µM (inactive) | 18.5 µM (inactive) | 14.4 µM (inactive) | 18.1 µM (inactive) | 15.4 µM (inactive) | 3.56 µM (inactive) | > 10 µM (inactive) | 18.2 µM (inactive) |
| Cn1c2c(c3ccccc31)CCN(CCCCN1CCc3c(n(C)c4ccccc34)C1=O)C2 | > 100 µM (inactive) | > 100 µM (inactive) | > 100 µM (inactive) | 47.5 µM (inactive) | > 100 µM (inactive) | > 100 µM (inactive) | > 100 | > 100 µM (inactive) | 92.7 µM (inactive) | > 100 µM (inactive) | > 100 µM (inactive) | 36.7 µM (inactive) | 88.1 µM (inactive) | > 100 µM (inactive) | > 100 µM (inactive) | – | > 100 µM (inactive) | – | – | – |
| O=C1CCCC(=O)N1n1c(Cc2ccc(Cl)cc2)n[nH]c1=O | > 100 µM (inactive) | > 100 µM (inactive) | – | > 100 µM (inactive) | > 100 µM (inactive) | > 100 µM (inactive) | > 100 | > 100 µM (inactive) | > 100 µM (inactive) | > 100 µM (inactive) | > 100 µM (inactive) | > 100 µM (inactive) | > 100 µM (inactive) | > 100 µM (inactive) | > 100 µM (inactive) | > 100 µM (inactive) | > 100 µM (inactive) | > 100 µM (inactive) | > 100 µM (inactive) | > 100 µM (inactive) |
| CN(C)CCCN=C(N)N | > 100 µM (inactive) | > 100 µM (inactive) | – | > 100 µM (inactive) | > 100 µM (inactive) | > 100 µM (inactive) | > 100 | > 100 µM (inactive) | > 100 µM (inactive) | > 100 µM (inactive) | > 100 µM (inactive) | > 100 µM (inactive) | > 100 µM (inactive) | > 100 µM (inactive) | > 100 µM (inactive) | > 100 µM (inactive) | > 100 µM (inactive) | > 100 µM (inactive) | > 100 µM (inactive) | > 100 µM (inactive) |
| COc1ccc(-n2cnc3c(N)nc(N)nc32)cc1 | > 100 µM (inactive) | 30.8 µM (inactive) | – | 49.5 µM (inactive) | > 100 µM (inactive) | > 100 µM (inactive) | > 100 | 53.6 µM (inactive) | > 100 µM (inactive) | 56.9 µM (inactive) | > 100 µM (inactive) | > 100 µM (inactive) | 45.7 µM (inactive) | > 100 µM (inactive) | > 100 µM (inactive) | 29.1 µM (inactive) | > 100 µM (inactive) | 90.8 µM (inactive) | > 100 µM (inactive) | > 100 µM (inactive) |
| CCCc1cn2c(/C=N/NC(=N)N)c(-c3cccc([N+](=O)[O-])c3)nc2s1 | 1.79 µM (inactive) | 1.61 µM (inactive) | – | 1.69 µM (inactive) | 2.25 µM (inactive) | 1.88 µM (inactive) | 1.84 | 1.21 µM (inactive) | 2.22 µM (inactive) | 1.92 µM (inactive) | 1.78 µM (inactive) | 1.47 µM (inactive) | 1.56 µM (inactive) | 2.02 µM (inactive) | 1.3 µM (inactive) | 1.76 µM (inactive) | 1.71 µM (inactive) | 2.48 µM (inactive) | 1.94 µM (inactive) | 1.66 µM (inactive) |
| CN(C)CCC(=O)N1CCc2c([nH]c3ccccc23)C1c1cccnc1 (stereo unspecified) | > 100 µM (inactive) | > 100 µM (inactive) | > 100 µM (inactive) | > 100 µM (inactive) | > 100 µM (inactive) | – | > 100 | > 100 µM (inactive) | > 100 µM (inactive) | > 100 µM (inactive) | > 100 µM (inactive) | > 100 µM (inactive) | 78.3 µM (inactive) | > 100 µM (inactive) | – | > 100 µM (inactive) | 28.5 µM (inactive) | – | – | – |
| C1CC2CN(CCCN3CCOCC3)C(C1)O2 (stereo unspecified) | > 100 µM (inactive) | > 100 µM (inactive) | – | > 100 µM (inactive) | > 100 µM (inactive) | > 100 µM (inactive) | > 100 | > 100 µM (inactive) | > 100 µM (inactive) | > 100 µM (inactive) | > 100 µM (inactive) | > 100 µM (inactive) | > 100 µM (inactive) | > 100 µM (inactive) | > 100 µM (inactive) | > 100 µM (inactive) | > 100 µM (inactive) | > 100 µM (inactive) | > 100 µM (inactive) | > 100 µM (inactive) |
